Holding throughout (assay type): functional
The test system of experiment [1] is Haemophilus influenzae. As to the kind of experiment: Antibacterial activity against Haemophilus influenzae 2762.
For experiment [2], the system named is Staphylococcus aureus. As to the kind of experiment: Antibacterial activity against Staphylococcus aureus 29213.
The subject of experiment [3] is Staphylococcus aureus. The experiment can be described thus: Antibacterial activity against Staphylococcus aureus 33591.
Experiment [4] has as its system Staphylococcus epidermidis. As to the kind of experiment: Antibacterial activity against Staphylococcus epidermidis 14990.
The test system of experiment [5] is Staphylococcus epidermidis. The experiment can be described thus: Antibacterial activity against Staphylococcus epidermidis f50654.
The subject of experiment [6] is Enterococcus faecalis. The experiment can be described thus: Antibacterial activity against Enterococcus faecalis 29212.
For experiment [7], the system named is Enterococcus faecalis. The experiment can be described thus: Antibacterial activity against Enterococcus faecalis bc11148-2.
The test system of another experiment is Streptococcus pyogenes. As to the kind of experiment: Antibacterial activity against Streptococcus pyogenes 8668.
The test system of experiment [8] is Streptococcus pneumoniae. As to the kind of experiment: Antibacterial activity against Streptococcus pneumoniae 49619.
The test system of experiment [9] is Streptococcus pneumoniae. The experiment can be described thus: Antibacterial activity against Streptococcus pneumoniae 297-749.
The test system of experiment [10] is Streptococcus pneumoniae. The experiment can be described thus: Antibacterial activity against Streptococcus pneumoniae 280-962.
Experiment [11] deals with Streptococcus pneumoniae. As to the kind of experiment: Antibacterial activity against Streptococcus pneumoniae Erm 6849.
The subject of experiment [12] is Streptococcus pneumoniae. The experiment can be described thus: Antibacterial activity against Streptococcus pneumoniae Mef 5654.
Experiment [13] concerns Streptococcus pneumoniae. As to the kind of experiment: Antibacterial activity against Streptococcus pneumoniae Mef S 3427.
Experiment [14] relates to Haemophilus influenzae. As to the kind of experiment: Antibacterial activity against Haemophilus influenzae 49247.

≈ marks a conversion by molar mass, not a printed value. A value given as a limit tells only on which side of the number the result lay.

As to `C=C[C@]12OC(=O)N(CCCCn3cnc(-c4ccc(OC)nc4)c3C)[C@@H]1[C@@H](C)C(=O)[C@H](C)C[C@@](C)(OC)[C@H](O[C@@H]1O[C@H](C)C[C@H](N(C)C)[C@H]1O)[C@@H](C)C(=O)[C@@H](C)C(=O)O[C@@H]2CC`, the MIC is 1.56 µg/mL (≈ 1.8 µM) against Haemophilus influenzae [1]; 0.2 µg/mL (≈ 0.23 µM) in the experiment on Staphylococcus aureus [2]; more than 50 µg/mL against Staphylococcus aureus [3]; 0.1 µg/mL (≈ 0.115 µM) in experiment [4]; 0.4 µg/mL (≈ 0.461 µM) in experiment [5]; 0.2 µg/mL (≈ 0.23 µM) in the experiment with Enterococcus faecalis [6]. Besides, the MIC against Enterococcus faecalis [7] is 1.56 µg/mL (≈ 1.8 µM); in the experiment with Streptococcus pyogenes, not above 0.05 µg/mL; in the experiment with Streptococcus pneumoniae [8], not above 0.05 µg/mL; against Streptococcus pneumoniae [9], not above 0.05 µg/mL; with Streptococcus pneumoniae [10], not above 0.05 µg/mL; in the experiment with Streptococcus pneumoniae [11], 0.4 µg/mL (≈ 0.461 µM). Further, the MIC with Streptococcus pneumoniae [12] came out at 1.56 µg/mL (≈ 1.8 µM); against Streptococcus pneumoniae [13], 0.2 µg/mL (≈ 0.23 µM); in the experiment with Haemophilus influenzae [14], 6.25 µg/mL (≈ 7.2 µM).
With `C=C[C@]12OC(=O)N(CCCC(C)(C)n3cnc4ncccc43)[C@@H]1[C@@H](C)C(=O)[C@H](C)C[C@@](C)(OC)[C@H](O[C@@H]1O[C@H](C)C[C@H](N(C)C)[C@H]1O)[C@@H](C)C(=O)[C@@H](C)C(=O)O[C@@H]2CC`, the MIC against Haemophilus influenzae [1] is 0.78 µg/mL (≈ 0.944 µM); with Staphylococcus aureus [2], 0.2 µg/mL (≈ 0.242 µM); against Staphylococcus aureus [3] it was more than 50 µg/mL; in [4], 0.2 µg/mL (≈ 0.242 µM); in [5], 0.1 µg/mL (≈ 0.121 µM); with Enterococcus faecalis [6], 0.1 µg/mL (≈ 0.121 µM). The MIC is 0.4 µg/mL (≈ 0.484 µM) against Enterococcus faecalis [7]; not above 0.05 µg/mL against Streptococcus pyogenes; not above 0.05 µg/mL against Streptococcus pneumoniae [8]; not above 0.05 µg/mL with Streptococcus pneumoniae [9]; not above 0.05 µg/mL against Streptococcus pneumoniae [10]; 0.1 µg/mL (≈ 0.121 µM) with Streptococcus pneumoniae [11]. Besides, the results for the MIC against Streptococcus pneumoniae [12], in the experiment with Streptococcus pneumoniae [13] and against Haemophilus influenzae [14] were 0.78 µg/mL (≈ 0.944 µM), 0.2 µg/mL (≈ 0.242 µM) and 6.25 µg/mL (≈ 7.57 µM), respectively.
In the case of `C=C[C@]12OC(=O)N(CCN(C)Cc3cccc(-c4cccnc4)c3)[C@@H]1[C@@H](C)C(=O)[C@H](C)C[C@@](C)(OC)[C@H](O[C@@H]1O[C@H](C)C[C@H](N(C)C)[C@H]1O)[C@@H](C)C(=O)[C@@H](C)C(=O)O[C@@H]2CC`, the MIC against Haemophilus influenzae [1] was 1.56 µg/mL (≈ 1.84 µM); in the experiment with Staphylococcus aureus [2] it was 0.2 µg/mL (≈ 0.236 µM); against Staphylococcus aureus [3], more than 50 µg/mL; in [4], 0.2 µg/mL (≈ 0.236 µM); in [5], 0.1 µg/mL (≈ 0.118 µM); against Enterococcus faecalis [6] it was 0.1 µg/mL (≈ 0.118 µM). Also, the MIC against Enterococcus faecalis [7] was 0.1 µg/mL (≈ 0.118 µM); against Streptococcus pyogenes, not above 0.05 µg/mL; with Streptococcus pneumoniae [8], not above 0.05 µg/mL; against Streptococcus pneumoniae [9], not above 0.05 µg/mL; against Streptococcus pneumoniae [10], not above 0.05 µg/mL; in the experiment on Streptococcus pneumoniae [11] it was 0.1 µg/mL (≈ 0.118 µM). In addition, the results for the MIC in the experiment on Streptococcus pneumoniae [12], with Streptococcus pneumoniae [13] and against Haemophilus influenzae [14] were 0.78 µg/mL (≈ 0.919 µM), 0.1 µg/mL (≈ 0.118 µM) and 6.25 µg/mL (≈ 7.36 µM), respectively.
For the compound `C=C[C@]12OC(=O)N(CCCCn3cnc(-c4cnccn4)c3)[C@@H]1[C@@H](C)C(=O)[C@H](C)C[C@@](C)(OC)[C@H](O[C@@H]1O[C@H](C)C[C@H](N(C)C)[C@H]1O)[C@@H](C)C(=O)[C@@H](C)C(=O)O[C@@H]2CC`, the MIC with Haemophilus influenzae [1] was 1.56 µg/mL (≈ 1.89 µM); in the experiment on Staphylococcus aureus [2], 0.2 µg/mL (≈ 0.242 µM); against Staphylococcus aureus [3], more than 50 µg/mL; in experiment [4], 0.1 µg/mL (≈ 0.121 µM); in experiment [5], 0.2 µg/mL (≈ 0.242 µM); in the experiment on Enterococcus faecalis [6] it was 0.1 µg/mL (≈ 0.121 µM). In addition, the MIC was 0.4 µg/mL (≈ 0.485 µM) in the experiment with Enterococcus faecalis [7]; not above 0.05 µg/mL against Streptococcus pyogenes; not above 0.05 µg/mL in the experiment on Streptococcus pneumoniae [8]; not above 0.05 µg/mL against Streptococcus pneumoniae [9]; not above 0.05 µg/mL against Streptococcus pneumoniae [10]; 0.2 µg/mL (≈ 0.242 µM) against Streptococcus pneumoniae [11]. In addition, the MIC amounted to 0.78 µg/mL (≈ 0.945 µM) against Streptococcus pneumoniae [12], 0.1 µg/mL (≈ 0.121 µM) in the experiment with Streptococcus pneumoniae [13] and 3.13 µg/mL (≈ 3.79 µM) in the experiment on Haemophilus influenzae [14].
As to `C=C[C@]12OC(=O)N(CCCCn3cnc(-c4cccnc4)c3)[C@@H]1[C@@H](C)C(=O)[C@H](C)C[C@@](C)(OC)[C@H](O[C@@H]1O[C@H](C)C[C@H](N(C)C)[C@H]1O)[C@@H](C)C(=O)[C@@H](C)C(=O)O[C@@H]2CC`, the MIC against Haemophilus influenzae [1] is 1.56 µg/mL (≈ 1.89 µM); with Staphylococcus aureus [2], 0.1 µg/mL (≈ 0.121 µM); in the experiment with Staphylococcus aureus [3], more than 50 µg/mL; in experiment [4], 0.2 µg/mL (≈ 0.243 µM); in [5], 0.2 µg/mL (≈ 0.243 µM); against Enterococcus faecalis [6], 0.1 µg/mL (≈ 0.121 µM). In addition, the MIC in the experiment on Enterococcus faecalis [7] was 0.4 µg/mL (≈ 0.485 µM); against Streptococcus pyogenes, not above 0.05 µg/mL; against Streptococcus pneumoniae [8] it was not above 0.05 µg/mL; in the experiment with Streptococcus pneumoniae [9], not above 0.05 µg/mL; with Streptococcus pneumoniae [10] it was not above 0.05 µg/mL; with Streptococcus pneumoniae [11] it was 0.2 µg/mL (≈ 0.243 µM). In addition, the MIC against Streptococcus pneumoniae [12] was found to be 0.4 µg/mL (≈ 0.485 µM); in the experiment with Streptococcus pneumoniae [13], 0.1 µg/mL (≈ 0.121 µM); against Haemophilus influenzae [14], 3.13 µg/mL (≈ 3.8 µM).
Take `C=C[C@]12OC(=O)N(CCCCn3ccc4ncccc43)[C@@H]1[C@@H](C)C(=O)[C@H](C)C[C@@](C)(OC)[C@H](O[C@@H]1O[C@H](C)C[C@H](N(C)C)[C@H]1O)[C@@H](C)C(=O)[C@@H](C)C(=O)O[C@@H]2CC`: the MIC against Haemophilus influenzae [1] was 1.56 µg/mL (≈ 1.96 µM); against Staphylococcus aureus [2] it was 0.1 µg/mL (≈ 0.125 µM); against Staphylococcus aureus [3] it was more than 50 µg/mL; in experiment [4] it was 0.1 µg/mL (≈ 0.125 µM); in [5], 0.1 µg/mL (≈ 0.125 µM); in the experiment on Enterococcus faecalis [6], 0.1 µg/mL (≈ 0.125 µM). For the same compound, the MIC against Enterococcus faecalis [7] is 3.13 µg/mL (≈ 3.93 µM); against Streptococcus pyogenes, not above 0.05 µg/mL; in the experiment on Streptococcus pneumoniae [8] it was not above 0.05 µg/mL; in the experiment with Streptococcus pneumoniae [9], not above 0.05 µg/mL; with Streptococcus pneumoniae [10] it was not above 0.05 µg/mL; with Streptococcus pneumoniae [11] it was 6.25 µg/mL (≈ 7.84 µM). Besides, the MIC against Streptococcus pneumoniae [12] worked out at 0.4 µg/mL (≈ 0.502 µM); with Streptococcus pneumoniae [13] it was 0.1 µg/mL (≈ 0.125 µM); in the experiment with Haemophilus influenzae [14] it was 6.25 µg/mL (≈ 7.84 µM).

The record behind these values is ChEMBL document CHEMBL1138190, “Synthesis and antibacterial activity of novel C12 vinyl ketolides” (J Med Chem, 2006).
